Assay results published in patent US20230093684A1, “STIMULI - OR BIO- RESPONSIVE COPOLYMERS, THE POLYMERSOMES COMPRISING THE SAME AND THEIR USE IN DRUG DELIVERY” (CENTRE NATIONAL DE LA RECHERCHE SCIENTIFIQUE, priority 2019, published 2023).

Assay: Glutathione (GSH)-triggered doxorubicin release followed by fluorescence
Type: physicochemical
Settings: Dox solution in brine 0.9% + GSH 10 mM
Procedure: Release of the encapsulated compound: The amount of released dye was followed at RT by fluorescence spectroscopy (Hitachi F7000 spectrometer). […] The λex excitation wavelength was set at 480 nm and the emission λem spectra were recorded from 490 to 720 nm. The instrument was used in scan mode, with excitation slit set to 5 nm and emission slit set to 5 nm.
The liberation of doxorubicin was followed by monitoring the fluorescence. Fluorescence spectra were collected by excitation at λex=470 nm wavelength and reading at λem=600 nm. In order to quantify the encapsulated drug, a method for the quantitative liberation was needed. Different methods, such as solvolysis, photolysis, addition of redox agents (sodium dithionite, mercaptoethanol, sodium thiosulfate, glutathione) were tested and are discussed as follows.
In parallel, Quino-Ps-DOX (50 μL) was treated with the […] glutathione (GSH) in its reduced form, 1 μL at c=10 mM in brine (0.9% (v/w). The concentration of the GSH was set to 10 mM in order to be compatible with the highest intracellular level (FIG. 5).
The amount of the liberated drug was quantified by fluorescence (λex=470 nm and λem=600 nm), by using a calibration curve (FIG. 6) ([…] (R^2=0.9911)). […]

- fluorescence intensity of free doxorubicin treated with GSH (stability control): no change in the fluorescence intensity
Compound: COc1cccc2c1C(=O)c1c(O)c3c(c(O)c1C2=O)C[C@@](O)(C(=O)CO)C[C@@H]3O[C@H]1C[C@H](N)[C@H](O)[C@H](C)O1 [doxorubicin]
